Results as given in US20160175318A1, “COMPOSITIONS COMPRISING ANTIBACTERIAL AGENT AND TAZOBACTAM” (WOCKHARDT LIMITED, priority 2013, published 2016).
Like-named read-outs stand apart in the source and are kept apart here.

What was measured:
Assay type in all cases: cell-based
E. coli M50 [1] = test: Quantitative drug diffusion assay (disc, zone of inhibition, CLSI); design: key to Interpretation of zone as per CLSI recommendations: R: Resistant; I: Intermediate; S: Sensitive (Interpretation as per CLSI recommendations, 2010)
From the text: (§1) Activity of cefepime in combination with tazobactam and various penicillins in combination with respective ESBL inhibitors was also investigated against highly resistant ESBL strains in quantitative drug diffusion assay performed as per CLSI recommendations (Clinical and Laboratory Standards Institute (CLSI), performance Standards for Antimicrobial Susceptibility Testing, 20th Informational Supplement, M 100-S20, Volume 30, No. 1, 2010).
(§2) In a typical study, overnight grown bacterial cultures after appropriate dilution were seed inoculated in the molten, cooled agar media and plates poured. Antibiotics containing 6 mm diameter discs were place on the top of the agar surface. Zone of inhibition based observation was performed after 16-18 h of incubation at 35±2° C. in ambient air. The overall procedure was performed as per CLSI recommendations (Table 5 and 6). These assays are routinely used in determining possibility of treating a particular infection using antibiotic and/or their combinations. For example, in case of treating an infection caused by E. coli (M138) using Augmentin® [commercially available combination: Amoxicillin (500 mg)+Clavulanic acid (125 mg)], the zone inhibition values need to be in the sensitive (S) range.

E. coli B-89 [2] = test: as above; design: key to Interpretation of zone as per CLSI recommendations: R: Resistant; I: Intermediate; S: Sensitive (Interpretation as per CLSI recommendations, 2010)
From the text: as §1, §2

E. coli S-112 = test: as above; design: key to Interpretation of zone as per CLSI recommendations: R: Resistant; I: Intermediate; S: Sensitive (Interpretation as per CLSI recommendations, 2010)
From the text: as §1, §2

E. coli M-138 = test: as above; design: key to Interpretation of zone as per CLSI recommendations: R: Resistant; I: Intermediate; S: Sensitive (Interpretation as per CLSI recommendations, 2010)
From the text: as §1, §2

E. coli 7MP [3] = test: as above; design: key to Interpretation of zone as per CLSI recommendations: R: Resistant; I: Intermediate; S: Sensitive (Interpretation as per CLSI recommendations, 2010)
From the text: as §1, §2

E. coli B-123 = test: as above; design: key to Interpretation of zone as per CLSI recommendations: R: Resistant; I: Intermediate; S: Sensitive (Interpretation as per CLSI recommendations, 2010)
From the text: as §1, §2

E. coli B123 = test: MIC by agar dilution (CLSI) against highly resistant ESBL strain; conditions: for Activity (MIC, method of Example 1), Table 7: E. coli B-123; for MIC: Escherichia coli, B123, E. coli B123, read-out: MIC
Experimental: (§3) The results on activity of cefepime and other cephalosporin antibacterial agents in combination with tazobactam against highly resistant ESBL strains are given Table 1. In a typical study, overnight grown bacterial cultures were diluted appropriately and inoculated on the agar media containing doubling dilutions of the antibiotic. Observation for growth or no growth was performed after 16-20 h of incubation at 35±2° C. in ambient air. The overall procedure was performed as per Clinical and Laboratory Standards Institute (CLSI) recommendations. This experimental was followed for Examples 2-4 and 6 below (Table 2-4 and 7).

E. coli M50 [4] = test: as above
Experimental: as §3

E. coli B-89 [5] = test: as above; conditions: E. coli B-89
Experimental: as §3

E. coli 7MP [6] = test: as above; conditions: E. coli 7MP
Experimental: as §3

E. cloacae M-20 = test: as above; conditions: E. cloacae M-20
Experimental: as §3

[7] = ESBL inhibitor 0 mcg (antibiotic alone)
[8] = Table 6, with Tazobactam 10 mcg

`CO/N=C(\C(=O)N[C@@H]1C(=O)N2C(C(=O)[O-])=C(C[n+]3cccc4c3CCC4)CS[C@H]12)c1csc(N)n1` [Cefpirome] was tested, and the “Zone of Inhibition” value (E. coli M50 [1]; [7]) was “Nil”, the “Interpretation of zone as per CLSI recommendations” value (E. coli M50 [1]; Table 6, ESBL inhibitor 0 mcg) was “(R)” and the “Interpretation of zone as per CLSI recommendations” value (E. coli M50 [1]; [8]) was “(S)”. The “Zone of Inhibition” value (E. coli M50 [1]; with Tazobactam 10 mcg) was 22 mm, the “Zone of Inhibition” value (E. coli B-89 [2]; [7]) was “Nil” and the “Interpretation of zone as per CLSI recommendations” value (E. coli B-89 [2]; Table 6, ESBL inhibitor 0 mcg) was “(R)”. For the same molecule, the “Interpretation of zone as per CLSI recommendations” value (E. coli B-89 [2]; [8]) was “(S)”, the “Zone of Inhibition” value (E. coli B-89 [2]; with Tazobactam 10 mcg) was 17.5 mm and the “Zone of Inhibition” value (E. coli S-112; [7]) was 15 mm. For the same molecule, the “Interpretation of zone as per CLSI recommendations” value (E. coli S-112; Table 6, ESBL inhibitor 0 mcg) was “(I)”, the “Interpretation of zone as per CLSI recommendations” value (E. coli S-112; [8]) was “(S)” and the “Zone of Inhibition” value (E. coli S-112; with Tazobactam 10 mcg) was 20 mm. The “Zone of Inhibition” value (E. coli M-138; [7]) was “Nil”, the “Interpretation of zone as per CLSI recommendations” value (E. coli M-138; Table 6, ESBL inhibitor 0 mcg) was “(R)” and the “Interpretation of zone as per CLSI recommendations” value (E. coli M-138; [8]) was “(S)”. The “Zone of Inhibition” value (E. coli M-138; with Tazobactam 10 mcg) was 21 mm, the “Zone of Inhibition” value (E. coli 7MP [3]; [7]) was 11 mm and the “Interpretation of zone as per CLSI recommendations” value (E. coli 7MP [3]; Table 6, ESBL inhibitor 0 mcg) was “(R)”. The “Interpretation of zone as per CLSI recommendations” value (E. coli 7MP [3]; [8]) was “(S)”, the “Zone of Inhibition” value (E. coli 7MP [3]; with Tazobactam 10 mcg) was 18.5 mm and the “Zone of Inhibition” value (E. coli B-123; [7]) was 8 mm. The “Interpretation of zone as per CLSI recommendations” value (E. coli B-123; Table 6, ESBL inhibitor 0 mcg) was “(R)”, the “Interpretation of zone as per CLSI recommendations” value (E. coli B-123; [8]) was “(S)” and the “Zone of Inhibition” value (E. coli B-123; with Tazobactam 10 mcg) was 20 mm. The Activity (MIC, method of Example 1), Table 7 (E. coli B123; antibiotic alone) was > 64 µg/mL, the Activity (MIC, method of Example 1), Table 7 (E. coli B123; with Clavulanic acid 4 mcg) was 16 µg/mL and the Activity (MIC, method of Example 1), Table 7 (E. coli B123; with Clavulanic acid 8 mcg) was 8 µg/mL. For the same molecule, the Activity (MIC, method of Example 1), Table 7 (E. coli B123; with Sulbactam 4 mcg) was 8 µg/mL, the Activity (MIC, method of Example 1), Table 7 (E. coli B123; with Sulbactam 8 mcg) was 16 µg/mL and the Activity (MIC, method of Example 1), Table 7 (E. coli B123; with Tazobactam 4 mcg) was 4 µg/mL. For the same molecule, the Activity (MIC, method of Example 1), Table 7 (E. coli B123; with Tazobactam, (4 mcg)) was 2 µg/mL, the MIC (E. coli B123; Tazobactam 0 mcg (antibiotic alone)) was > 64 µg/mL and the MIC (E. coli B123; with Tazobactam 4 mcg) was 4 µg/mL. For the same molecule, the MIC (E. coli B123; with Tazobactam 8 mcg) was 2 µg/mL, the MIC (E. coli M50 [4]; Escherichia coli, 20 h, Tazobactam 0 mcg (antibiotic alone), read-out: MIC) was > 64 µg/mL and the MIC (E. coli M50 [4]; with Tazobactam 4 mcg) was 2 µg/mL. It also gave an MIC (E. coli M50 [4]; with Tazobactam 8 mcg) of 2 µg/mL, an MIC (E. coli B-89 [5]; with Tazobactam 4 mcg) of 4 µg/mL and an MIC (E. coli B-89 [5]; with Tazobactam 8 mcg) of 2 µg/mL. For the same molecule, the MIC (E. coli B-89 [5]; Escherichia coli, B89, 20 h, Tazobactam 0 mcg (antibiotic alone), read-out: MIC) was > 64 µg/mL, the Activity (MIC, method of Example 1), Table 7 (E. coli 7MP [6]; antibiotic alone) was > 64 µg/mL and the Activity (MIC, method of Example 1), Table 7 (E. coli 7MP [6]; with Clavulanic acid 4 mcg) was 16 µg/mL. It also gave an Activity (MIC, method of Example 1), Table 7 (E. coli 7MP [6]; with Clavulanic acid 8 mcg) of 8 µg/mL, an Activity (MIC, method of Example 1), Table 7 (E. coli 7MP [6]; with Sulbactam 4 mcg) of 16 µg/mL and an Activity (MIC, method of Example 1), Table 7 (E. coli 7MP [6]; with Sulbactam 8 mcg) of 16 µg/mL. It also gave an Activity (MIC, method of Example 1), Table 7 (E. coli 7MP [6]; with Tazobactam 4 mcg) of 8 µg/mL, an MIC (E. coli 7MP [6]; with Tazobactam 4 mcg) of 8 µg/mL and an MIC (E. coli 7MP [6]; with Tazobactam 8 mcg) of 4 µg/mL. For the same molecule, the Activity (MIC, method of Example 1), Table 7 (E. coli 7MP [6]; with Tazobactam, (4 mcg)) was 4 µg/mL, the MIC (E. coli 7MP [6]; Escherichia coli, 7MP, 20 h, Tazobactam 0 mcg (antibiotic alone), read-out: MIC) was > 64 µg/mL and the Activity (MIC, method of Example 1), Table 7 (E. cloacae M-20; antibiotic alone) was > 64 µg/mL. It also gave an Activity (MIC, method of Example 1), Table 7 (E. cloacae M-20; with Clavulanic acid 4 mcg) of 16 µg/mL, an Activity (MIC, method of Example 1), Table 7 (E. cloacae M-20; with Clavulanic acid 8 mcg) of 8 µg/mL and an Activity (MIC, method of Example 1), Table 7 (E. cloacae M-20; with Sulbactam 4 mcg) of 32 µg/mL. For the same molecule, the Activity (MIC, method of Example 1), Table 7 (E. cloacae M-20; with Sulbactam 8 mcg) was 16 µg/mL, the Activity (MIC, method of Example 1), Table 7 (E. cloacae M-20; with Tazobactam 4 mcg) was 8 µg/mL and the MIC (E. cloacae M-20; with Tazobactam 4 mcg) was 8 µg/mL. For the same molecule, the MIC (E. cloacae M-20; with Tazobactam 8 mcg) was 4 µg/mL, the Activity (MIC, method of Example 1), Table 7 (E. cloacae M-20; with Tazobactam, (4 mcg)) was 4 µg/mL and the MIC (E. cloacae M-20; Enterobacter cloacae, M20, 20 h, Tazobactam 0 mcg (antibiotic alone), read-out: MIC) was > 64 µg/mL.
